Results on one substance are retold here after paper PMC8412337, “Alpha-single chains of collagen type VI inhibit the fibrogenic effects of triple helical collagen VI in hepatic stellate cells” (PLoS ONE, 2021).

What all share (assay type): cell-based
Test [1] deals with primary rat HSC. Nature of the test: FACS analysis of apoptosis (propidium iodide DNA content). The method, then: Activated HSC (third passage) were serum starved for 24 h in standard medium without FBS (starving medium), followed by dissociation with 500 μl 0.05% trypsin-EDTA (Biochrom, Berlin, Germany) and neutralization with 30 ml starving medium containing 1 g/l soybean trypsin inhibitor and 1 g/l ovalbumin. Alternatively, cells were scraped carefully with a cell-scraper (Costar, Cambridge, MA, USA) to exclude any potential effect of trypsin. After centrifugation at 800 x g for 10 min, cells were washed twice with 20 ml PBS (w/o Ca^2+, Mg^2+; Biochrom, Berlin, Germany), resuspended in starving medium and plated at a density of 1.5-2x10^6 in 1.7 ml starving medium in 6-well plates (NUNC, Wiesbaden, Germany). Cells were then treated with starving medium, soluble CI or CVI (both at a final concentration of 30 mg/l), or 10% FBS. For quantification of spreading, cells that had attached were counted 12 hours after plating and spreading efficiency was determined as percentage of plated cells in each group. De-novo DNA synthesis and apoptosis were assessed by morphological criteria, Cell death detection ELISA and FACS analysis as described below. […] After blocking the cells 1h with DMEM+1% FBS, the cells were incubated with primary antibodies against a-actin (Sigma-Aldrich, Taufkirchen, Germany, #A2547; dilution 1:200) and GFAP (Sigma-Aldrich, #G9269; dilution 1:20) followed by a washing step with PBS and the incubation with fluorescence-labeled secondary antibodies (Alexa Fluor 546 & Alexa Fluor 488, Molecular Probes, Eugene, USA, #A11030 & #A11034; dilution 1:100). […] Cells were analyzed by fluorescence microscopy (Zeiss, Jena, Germany; Kodak Ektachrome P1600 and a quantitative staining analysis was performed using Image J software (version 1.50i; National Institutes of Health, Bethesda, […], USA).
10^5 of freshly set cells were treated with starving medium, CI, CVI or 10% FBS for 24 or 48 hours as described before. […] Fixed cells were stained with propidium iodide (50 mg/l) in a final volume of 1 ml before being subjected to fluorescence activated cell sorting (FACS) analysis.
On the technique in general: Flow cytometry measures light scatter and fluorescence of single cells or particles in a stream.

In test [2] the test system is primary rat HSC. The test is described as follows: DNA laddering (agarose gel electrophoresis). Particulars: after 24 h; 30 μg/ml CVI; serum-starved primary rat HSC. Here is the method:
Cells were treated 24 h with 0% FBS, CI, CVI or 10% FBS. Equal cell numbers (1.5x10^6) were used to detect oligonucleosomes using the Apoptotic DNA Ladder Kit (Boehringer Mannheim, Germany) according to the manufacturer’s instructions. The isolated DNA from each group was electrophoresed on a 1.5% Agarose-Gel at 75 V for 1.5 hours, stained with ethidium bromide and visualized via an UV light source (302 nm).

Test [3] relates to primary rat HSCs. Nature of the test: Spreading and survival after serum withdrawal, phase contrast microscopy. Particulars: within 24 h; medium lacking FBS; 30 μg/ml collagen; three independent experiments. The method, then:
(§1) Activated HSC (third passage) were serum starved for 24 h in standard medium without FBS (starving medium), followed by dissociation with 500 μl 0.05% trypsin-EDTA (Biochrom, Berlin, Germany) and neutralization with 30 ml starving medium containing 1 g/l soybean trypsin inhibitor and 1 g/l ovalbumin. Alternatively, cells were scraped carefully with a cell-scraper (Costar, Cambridge, MA, USA) to exclude any potential effect of trypsin. […] For quantification of spreading, cells that had attached were counted 12 hours after plating and spreading efficiency was determined as percentage of plated cells in each group. De-novo DNA synthesis and apoptosis were assessed by morphological criteria, Cell death detection ELISA and FACS analysis as described below. […] After blocking the cells 1h with DMEM+1% FBS, the cells were incubated with primary antibodies against a-actin (Sigma-Aldrich, Taufkirchen, Germany, #A2547; dilution 1:200) and GFAP (Sigma-Aldrich, #G9269; dilution 1:20) followed by a washing step with PBS and the incubation with fluorescence-labeled secondary antibodies (Alexa Fluor 546 & Alexa Fluor 488, Molecular Probes, Eugene, USA, #A11030 & #A11034; dilution 1:100). […]

Test [4] concerns primary rat HSCs. Nature of the test: [3H]-thymidine incorporation, de-novo DNA synthesis. Particulars: primary rHSCs.
Test [5] concerns primary rat HSC. The test is described as follows: Morphology and αSMA protein expression (activation of HSCs). Here is the method: as §1
Dislodged cells were centrifuged at 800 x g/10 min and lysed with 100 μl lysis buffer. […] The emitted fluorescence was assessed at 570 nm in a SpectraMax Gemini EM (Molecular Devices, Biberach an der Riß, Germany). […]

For the substance “CVI: Human collagen VI isolated from placentas by pepsin digestion; triple helical, soluble”, the “fold less apoptosis compared to the CI-treated group” value in the test on primary rat HSC [1] (FACS, CVI-treated versus CI-treated group, p<0.05) is given as “approximately 3 fold”. For the same substance, in the test with primary rat HSC [1] (serum-starved primary rat HSC, text: within 24 hours, Fig 1C legend: 48 h, propidium iodide, three independent experiments), the “percentage of apoptotic cells (FACS)” value was 25%. The “apoptosis-associated DNA laddering” value in the test on primary rat HSC [2] is recorded as “only faint”. Further, the “suppression of growth factor withdrawal-induced apoptosis (attachment, cell shrinkage)” value in the test on primary rat HSCs [3] is given as “potently suppressed”. Also, the “de-novo DNA synthesis ([3H]-thymidine incorporation)” value in the test with primary rat HSCs [4] (CVI at 10 μg/ml, within 24 hours, three independent experiments) was “stimulated a robust de-novo DNA synthesis”. Further, the “de-novo DNA synthesis ([3H]-thymidine incorporation) at increasing concentration” value in the test on primary rat HSCs [4] (CVI from 10 μg/ml up to 100 μg/ml, concentration dependent) was “equaling the effects of 10% FBS”. For the same substance, the “protein expression of αSMA” value in the test with primary rat HSC [5] (freshly isolated rat HSCs, immunostaining, detected as early as three days, immunoblotting) is reported as “strongly induced”. Moreover, in the test on primary rat HSC [5] (primary rat HSC, serum-reduced medium containing 1% FBS, five days), the “formation of cytoplasmic extensions” value is listed as “induced the formation of distinct cytoplasmic extensions”.
